B1: native murine α2 M: α2-macroglobulin purified from the plasma of CD-1 female mice, native form (protein, UniProt Q61838 25-1495, looked up)
Pregnancy zone protein: ATAKPQYVVLVPSEVYSGVPEKACVSLNHVNETVMLSLTLEYAMQQTKLLTDQAVDKDSFYCSPFTISGSPLPYTFITVEIKGPTQRFIKKKSIQIIKAESPVFVQTDKPIYKPGQIVKFRVVSVDISFRPLNETFPVVYIETPKRNRIFQWQNIHLAGGLHQLSFPLSVEPALGIYKVVVQKDSGKKIEHSFEVKEYVLPKFEVIIKMQKTMAFLEEELPITACGVYTYGKPVPGLVTLRVCRKYSRYRSTCHNQNSMSICEEFSQQADDKGCFRQVVKTKVFQLRQKGHDMKIEVEAKIKEEGTGIELTGIGSCEIANALSKLKFTKVNTNYRPGLPFSGQVLLVDEKGKPIPNKNITSVVSPLGYLSIFTTDEHGLANISIDTSNFTAPFLRVVVTYKQNHVCYDNWWLDEFHTQADHSATLVFSPSQSYIQLELVFGTLACGQTQEIRIHYLLNEDIMKNEKDLTFYYLIKARGSIFNLGSHVLSLEQGNMKGVFSLPIQVEPGMAPEAQLLIYAILPNEELVADAQNFEIEKCFANKVNLSFPSAQSLPASDTHLKVKAAPLSLCALTAVDQSVLLLKPEAKLSPQSIYNLLPGKTVQGAFFGVPVYKDHENCISGEDITHNGIVYTPKHSLGDNDAHSIFQSVGINIFTNSKIHKPRFCQEFQHYPAMGGVAPQALAVAASGPGSSFRAMGVPMMGLDYSDEINQVVEVRETVRKYFPETWIWDLVPLDVSGDGELAVKVPDTITEWKASAFCLSGTTGLGLSSTISLQAFQPFFLELTLPYSVVRGEAFTLKATVLNYMSHCIQIRVDLEISPDFLAVPVGGHENSHCICGNERKTVSWAVTPKSLGEVNFTATAEALQSPELCGNKLTEVPALVHKDTVVKSVIVEPEGIEKEQTYNTLLCPQDTELQDNWSLELPPNVVEGSARATHSVLGDILGSAMQNLQNLLQMPYGCGEQNMVLFVPNIYVLNYLNETQQLTEAIKSKAINYLISGYQRQLNYQHSDGSYSTFGNHGGGNTPGNTWLTAFVLKAFAQAQSHIFIEKTHITNAFNWLSMKQKENGCFQQSGYLLNNAMKGGVDDEVTLSAYITIALLEMPLPVTHSAVRNALFCLETAWASISQSQESHVYTKALLAYAFALAGNKAKRSELLESLNKDAVKEEDSLHWQRPGDVQKVKALSFYQPRAPSAEVEMTAYVLLAYLTSESSRPTRDLSSSDLSTASKIVKWISKQQNSHGGFSSTQDTVVALQALSKYGAATFTRSQKEVLVTIESSGTFSKTFHVNSGNRLLLQEVRLPDLPGNYVTKGSGSGCVYLQTSLKYNILPVADGKAPFALQVNTLPLNFDKAGDHRTFQIRINVSYTGERPSSNMVIVDVKMVSGFIPMKPSVKKLQDQPNIQRTEVNTNHVLIYIEKLTNQTLGFSFAVEQDIPVKNLKPAPIKVYDYYETDEFTVEEYSAPFSDGSEQGNA

Experiments:
TNF-α [1] = test: Nondenaturing PAGE binding of 125I-TNF-α to α2M forms; conditions: 125I-TNF-α 1 nM, α2M preparation 1.0 μM, 1 h at 37° C
Description: Nondenaturing PAGE was performed on 5% slabs.
The incubation mixtures were then subjected to nondenaturing PAGE, a method that allows recovery of noncovalent as well as covalent α2 M-cytokine complexes. Gonias et al., Ann. […] The TNF-α was detected by autoradiography or Phosphor-Imager analysis.
Crookston et al, Wollenberg et at., Amer. J. Pathol.

mice = test: Toxicity of IP human MAC in mice; type: in vivo; conditions: 1.0, 2.5 or 5.0 mg IP, 5 days of observation
Description: Equivalent concentrations of human α2 M (native, unmodified form) were injected IP in separate animals, as a control. Each concentration of MAC or human α2 M was studied in duplicate. […] The animals were sacrificed after 5 days of observation.

LPS-challenged mice = test: LPS challenge, MAC pre-treatment, survival; type: in vivo, CD-1 female mice; conditions: 2.5 mg IP 60 min prior to intravenous LPS
Description: Survival curves for LPS-challenged mice, with or without MAC pre-treatment.CD-5 female mice were injected EP with 2.5 mg MAC (.box-solid.) or an equivalent volume of PBS (.circle-solid.). After 60 min, the mice were anesthetized and 57 mg/kg LPS were injected intravenously. The mice were monitored for up to 5 days and then sacrificed. Survival data are presented in panel a. In panel b, mice were injected IP with 2.0 mg MAC (Δ), 1.0 mg MAC (.smallcircle.), or 2.5 mg of native human α2 M (.quadrature.). LPS was injected 60 min later.
CD-1 female mice were obtained from Charles River Breeding Laboratories. Animals were kept on a 12:12 h dark-light cycle. Mice were anesthetized with diethyl ether prior to intravenous injections of LPS. All animals were observed on a continuous basis. Those entering a moribund condition were euthanized by cervical dislocation under anesthesia.

TNF-α [2] = conditions: literature (Wolf et al.); read-out: KD, TNF-α binding to α2M; cited from earlier work
interferon-γ = conditions: literature (Wolf et al.); cited from earlier work
[3] = test system: ciliary neurotrophic factor; conditions: literature (Wolf et al.); cited from earlier work

| Molecule | binding of 125I-TNF-α (nondenaturing PAGE) (TNF-α [1]) | tolerability (neurologic status, respiratory rate, eating and drinking, general behavior) (mice) | animals that died within 24 h (deaths/total) (LPS-challenged mice) | Kd (TNF-α [2]) [µM] | binding of interferon-γ to α2M (interferon-γ) | binding of ciliary neurotrophic factor to α2M [3] |
| --- | --- | --- | --- | --- | --- | --- |
| native human α2 M: α2-macroglobulin purified from human plasma, native unmodified form | not detected | without outward changes in physiology | 4/4 | 5 to 10 | do not bind | do not bind |
| B1 | the level of binding was low |  |  |  |  |  |

Source: US5902787A, “Chemically modified a-macroglobulins, methods of making, and methods of using the same in anti-cytokine therapy” (The University of Virginia Patent Foundation, priority 1997, dated 1999)
